≈ marks a conversion by molar mass, not a printed value. Like-named read-outs stand apart in the source and are kept apart here.
Columns and labels:
Staphylococcus Aureus [1] = assay: In vivo activity in an acute lethal mouse infection model; settings: 168 h, mice infected intraperitoneally with S. aureus, dosed at one hour and four hours post-infection, survivors on seventh day
Description: The in vivo potency of these compounds is exemplified by the data summarized in Table V. Determinations of in vivo efficacy are performed by inoculating mice intraperitoneally with cultures of the infecting organism diluted to produce 100% mortality in control animals within twenty-four hours. The culture of S. aureus used to infect the animals was diluted to the required bacterial density using 5% aqueous hog gastric mucin. The compounds are dissolved or suspended in 0.25% aqueous Methocel® (Methocel®: Hydroxypropyl Methylcellulose, E15 Premium, Dow Chemical Company) for oral administration or sterile distilled water containing 5% dimethylsulfoxide (Fisher Scientific Company, Fairlawn, NJ) for subcutaneous administration. The mice are dosed at one hour and at four hours post-infection. Mortality is recorded daily until test termination seven days post infection. The number of survivors in each treatment group on the seventh day after infection is used in the calculation of the ED₅₀, the dose of compound that protects 50% of the mice (Litchfield, J. T. and Wildoxon. A simplified method for evaluating dose-effect experiments. J. Pharmacol Exp. Ther., 96:99-113, 1949).

Staphylococcus aureus [2] = assay: In vitro broth microdilution minimal inhibitory concentration (MIC), Mueller-Hinton broth; format: cell-based; settings: 24-hour MIC, standard microdilution method, read-out: Minimum Inhibitory Concentration Staphylococcus aureus
Source text: (§1) A standard microdilution method (National Committee for Clinical Standards. Tentative standard M7-T. Standard methods for dilution antimicrobial susceptibility tests for bacteria that grow aerobically. National Committee for Clinical Laboratory Standards, Villanova, PA. 1982) with Mueller-Hinton broth is used to determine the 24-hour minimal inhibitory concentrations (MIC's) for test strains of Staphylococcus aureus and Escherichia coli.

Escherichia coli = assay: as above; format: cell-based; settings: 24-hour MIC, standard microdilution method, read-out: Minimum Inhibitory Concentration Escherichia coli
Source text: as §1

[3] = oral in 0.25% aqueous Methocel, read-out: ED₅₀ Oral Administration
[4] = sc, subcutaneous in sterile distilled water containing 5% dimethylsulfoxide, read-out: ED₅₀ Subcutaneous Administration

SMILES	ED50 (Staphylococcus Aureus [1]; [3]) [mg/kg]	ED50 (Staphylococcus Aureus [1]; [4]) [mg/kg]	MIC (Staphylococcus aureus [2]) [µg/mL]	MIC (Escherichia coli) [µg/mL]
CSc1ccc(C(=O)c2ccc(N3C[C@H](CNC(C)=O)OC3=O)cc2)cc1 [Example 8]	> 90	> 90	4 (≈ 10.4 µM)	> 128
CC(=O)NC[C@H]1CN(c2ccc(C(O)c3ccccc3)cc2)C(=O)O1 (stereo partly drawn) [Example 20]	65	52	32 (≈ 94 µM)	> 128
CC(=O)NC[C@H]1CN(c2ccc(C(=O)c3ccc(F)cc3)cc2)C(=O)O1 [Example 1, (ℓ)-N-[3-[4-(4-fluorobenzoyl)-phenyl]-2-oxooxazolidin-5-ylmethyl]acetamide]	40	20	4 (≈ 11.2 µM)	> 128
CC(=O)NC[C@H]1CN(c2ccc(C(=O)c3ccc(F)cc3F)cc2)C(=O)O1 [Example 6, (ℓ)-N-[3-[4-(2,4-difluorobenzoyl)phenyl]-2-oxooxazolidin-5-ylmethyl]acetamide]	30	26	1 (≈ 2.67 µM)	> 128
CC(=O)NC[C@H]1CN(c2ccc(C(=O)c3ccc(S(C)(=O)=O)cc3)cc2)C(=O)O1 [Example 11]	> 90	> 90	4 (≈ 9.6 µM)	> 128
COc1ccc(C(=O)c2ccc(N3C[C@H](CNC(C)=O)OC3=O)cc2)cc1 [Example 3]	41	15	4 (≈ 10.9 µM)	> 128
CC(=O)NC[C@H]1CN(c2ccc(C(=O)c3ccccc3)cc2)C(=O)O1 [Example 2]	47	60	4 (≈ 11.8 µM)	> 128
COc1cc(Cl)ccc1C(=O)c1ccc(N2C[C@H](CNC(C)=O)OC2=O)cc1 [Example 7]	> 120	> 120	32 (≈ 79.4 µM)	> 128
CC(=O)NC[C@H]1CN(c2ccc(C(=O)c3cccc(F)c3)cc2)C(=O)O1 [Example 5]	42	25	8 (≈ 22.4 µM)	> 128
CC(=O)NC[C@H]1CN(c2ccc(C(=O)c3cccnc3)cc2)C(=O)O1 [Example 15]	> 90	59	8 (≈ 23.6 µM)	> 128
CC(=O)NC[C@H]1CN(c2ccc(C(=O)c3ccc([N+](=O)[O-])cc3)cc2)C(=O)O1 [Example 9, (ℓ)-N-[3-[4-(4-nitrobenzoyl)phenyl]-2-oxooxazolidin-5-ylmethyl]acetamide]	> 90	> 90	1 (≈ 2.61 µM)	> 128
CC(=O)NC[C@H]1CN(c2ccc(C(=O)c3ccc([S+](C)[O-])cc3)cc2)C(=O)O1 (stereo partly drawn) [Example 10]	> 90	> 90	16 (≈ 40 µM)	> 128

Source: patent EP0312000B1, “Aminomethyl oxooxazolidinyl aroylbenzene derivatives useful as antibacterial agents” (THE DU PONT MERCK PHARMACEUTICAL COMPANY, priority 1987, dated 1989)
